Data taken from paper PMC5554137, “Evaluation of novel factor Xa inhibitors from Oxya chinensis sinuosa with anti-platelet aggregation activity” (Scientific Reports, 2017).

Experiments:
Plasmin = Plasmin (Homo sapiens, UniProt P00747); test: Chromogenic substrate assay, Ki determination, Plasmin; assay type: biochemical; conditions: for Ki: substrate S-2251
Description: (§1) The inhibitor (I) constants (Ki) were determined for the inhibition of a series of human enzymes (FXa, thrombin, trypsin, plasmin, protein Ca, streptokinase, tPA, and urokinase) by each compound. Chromogenic substrate assays were performed using a Labsystems IEMS (Cergy Pontoise, France) microtiter plate reader. In each assay, the compound was tested at a minimum of seven concentrations in duplicate to obtain an inhibition curve. Assays were performed according to the following general procedure. In a 96-well microtiter plate, 25 μL of compound, inhibitor solution or buffer was added to 50 μL of substrate. A volume of 25 μL of enzyme solution was added just before the plate was placed in the microtiter plate reader for 1 h at 37 °C. The hydrolysis of the substrate yields p-nitroaniline, which was continuously monitored spectrophotometrically at 405 nm. Data were collected and the initial rate of substrate hydrolysis [Vo (mOD/minute)] was calculated. Following Michaelis-Menten kinetics, the affinity of the enzyme for the substrate, in the absence of the inhibitor (Km) and in the presence of an inhibitor (Kp), was determined to be the negative inverse x-intercept of Lineweaver–Burk plots. The dissociation constant for inhibition (Ki) was calculated using the following equation: Ki = (Km·[I])/(Kp − Km) as described by Williams and Morrison[40].

FXa [1] = target: T1, FXa (Homo sapiens, UniProt P00742); test: Inhibition of amidolytic activity of FXa toward S-2222 (Michaelis-Menten, Lineweaver-Burk; with or without TFPI); assay type: biochemical; conditions: for type of inhibition of FXa (Lineweaver-Burk plots) / slope of inhibition activity plot: S-2222; for slope of inhibition activity plot: FXa; for Ki: substrate S-2222
T1 construct: purchased Haematologic Technologies (Essex Junction, VT, USA)
Description: To elucidate the mechanisms responsible for inhibition of coagulation and platelet aggregation by compounds 1–4, inhibition of FXa activity was determined using chromogenic substrates. […] We observed a decrease in Vmax, with no effect on the Km of FXa toward S-2222 in the presence of compound 1. […] We also observed a slope of 0.401 for the control without compound 2, and slopes of 0.442 and 0.465 for compound 2 at concentrations of 2 and 5 µM, respectively. […] We observed a decrease in Vmax, with no effect on the Km of FXa toward S-2222 in the presence of compound 2. […] Inhibition activity plots were obtained for different concentrations of compound 3, showing a slope of 0.388 for the control without compound 3, and slopes of 0.408 and 0.464 for compound 3 at concentrations of 2 and 5 µM, respectively. […] We also observed a slope of 0.363 for the control without compound 4, and slopes of 0.376 and 0.398 for compound 4 at concentrations of 2 and 5 µM, respectively. […] We observed a decrease in Vmax, with no effect on the Km of FXa toward S-2222 in the presence of compound 4.
Figure 6 Effects of compounds 1–4 on inhibition and production of FXa. […] The plots represent means of three independent measurements. (E) Human umbilical vein endothelial cells (HUVECs) were pre-incubated with the indicated concentration of each compound for 10 min. HUVECs stimulated with tumor necrosis factor-α (TNF-α, 10 ng/mL for 6 h) were incubated with FVIIa (10 nM) and FX (175 nM) in the absence or presence of anti-TF IgG (25 µg/mL). FXa production was determined as described in the “ Supplementary Materials and Methods” section. D = 0.2% DMSO used as the vehicle control. (F) Inhibition of FXa by each compound (5 μM) with or without TFPI (2 nM) was monitored using a chromogenic assay. ^* p < 0.05 vs. TNF-α alone (E) or each compound (F) alone, analyzed via one-way ANOVA, followed by Tukey multiple comparison testing.
Each compound with or without TFPI was dissolved in 50 mM Tris-HCl buffer (pH 7.4) containing 7.5 mM EDTA and 150 mM NaCl. Following a 2-min incubation at 37 °C, FXa solution (150 μL, 1 U/mL) was added, followed by incubation at 37 °C for 1 min. S-2222 (an FXa substrate, 150 μL, 1.5 mM) solution was subsequently added, and the absorbance at 405 nm was monitored for 20 min using a spectrophotometer (TECAN, Männedorf, Switzerland). The absorbance-time curve and the slope of the curve (Vi) were used to represent the activity of the enzyme. Distilled water served as a control (the slope of curve V0). The inhibitory effect was calculated according to equation (1):1 Inhibitoryrate(%)=(V0−Vi)/V0×100 where V0 represents the slope of the vehicle and Vi represents the slope of the samples.

FXa [2] = target: T1, FXa; test: Chromogenic substrate assay, Ki determination, Factor Xa; assay type: biochemical; conditions: for Ki: substrate S-2765 (Table 3), mean ± SD (n = 5)
Description: as §1

Protein Ca = Protein Ca (Homo sapiens, UniProt P04070); test: Chromogenic substrate assay, Ki determination, Protein Ca; assay type: biochemical; conditions: for Ki: substrate S-2366
Description: as §1

Urokinase = Urokinase (Homo sapiens, UniProt P00749); test: Chromogenic substrate assay, Ki determination, Urokinase; assay type: biochemical; conditions: for Ki: substrate S-2444
Description: as §1

[3] = test system: Streptokinase (Homo sapiens); test: Chromogenic substrate assay, Ki determination, Streptokinase; assay type: biochemical; conditions: for Ki: substrate S-2251
Description: as §1

α-Thrombin = target: T2, α-Thrombin (Homo sapiens, UniProt P00734); test: Chromogenic substrate assay, Ki determination, α-Thrombin; assay type: biochemical; conditions: for Ki: substrate S-2238
T2 construct: FXa converts prothrombin to thrombin; purchased Haematologic Technologies (Essex Junction, VT, USA)
Description: as §1

tPA = tPA (Homo sapiens, UniProt P00750); test: Chromogenic substrate assay, Ki determination, tPA; assay type: biochemical; conditions: for Ki: substrate S-2228
Description: as §1

Trypsin = test: Chromogenic substrate assay, Ki determination, Trypsin; assay type: biochemical, human; conditions: for Ki: substrate S-2222
Description: as §1

C57BL/6 mice = test: Tail bleeding time; assay type: in vivo; conditions: tail-cutting assay, mean ± SD, n = 10
Description: Figure 4 Effects of compounds 1–4 on clotting and bleeding time. (A) One hour after administration (intravenous injection) of compound 1 (white box), 2 (light gray box), 3 (dark gray box), or 4 (black box), blood was collected from the mice and platelet-poor plasma (PPP) was obtained by centrifugation at 2,000 × g for 10 min at room temperature to test ex vivo activated partial thromboplastin time (aPTT). (B) Each group received a daily intravenous injection of the indicated compound for four consecutive days. Fifteen minutes after the last administration, blood samples were collected and in vivo aPTT was measured. (C) Fifteen minutes after administration of each compound or aspirin (4.5 or 9 mg/kg for 30 min) or the vehicle, tail tips (3 mm long) were cut from each mouse, and the remaining tail was immediately immersed into saline at 37 °C. Accumulated bleeding times (including periods of re-bleeding) were recorded. D = 0.2% DMSO used as the vehicle control. Data are presented as means ± SD of three independent experiments. *p < 0.05 vs. vehicle alone, analyzed by one-way ANOVA, followed by Tukey multiple comparison testing.
To assess bleeding risk incurred by compounds 1–4, we measured bleeding time in mice treated with each compound (up to 30 µM/mouse) by using a tail-cutting assay; the concentration used was three-fold higher than the doses used for the in vivo anti-thrombotic studies. Aspirin-treated mice (9 mg/kg) served as positive controls. […] However, the bleeding time in mice treated with compounds 1–4 was shorter than that observed in mice treated with aspirin ([…], mean ± SD, n = 10). The dose required to avoid thrombus formation and to protect against paralysis or death in mice was determined to be 5 µM per mouse (Fig. 7C).
Tail bleeding times were measured using the method described by Dejana et al.[37]. Briefly, C57BL/6 mice were fasted overnight prior to the experiments. […] after the i.v. administration of each compound, the tails of the mice were transected […] from their tips. Bleeding time was defined as the time elapsed until bleeding stopped. Bleeding times that exceeding 15 min were recorded as 15 min.

T1 sequence (P00742 235-488 limits assumed): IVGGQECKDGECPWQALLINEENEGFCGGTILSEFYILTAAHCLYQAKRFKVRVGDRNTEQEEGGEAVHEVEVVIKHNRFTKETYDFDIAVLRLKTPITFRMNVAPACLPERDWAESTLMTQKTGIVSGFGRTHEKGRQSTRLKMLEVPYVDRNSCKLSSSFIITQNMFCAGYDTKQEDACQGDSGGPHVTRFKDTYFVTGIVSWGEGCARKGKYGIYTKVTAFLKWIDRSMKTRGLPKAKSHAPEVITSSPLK
T1 sequence (P00742 41-179 limits assumed): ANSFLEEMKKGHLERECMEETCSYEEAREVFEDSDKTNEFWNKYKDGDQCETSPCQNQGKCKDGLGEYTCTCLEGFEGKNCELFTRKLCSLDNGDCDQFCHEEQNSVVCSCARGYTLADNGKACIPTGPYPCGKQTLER
Chain of Plasmin (P00747 581-810 limits assumed): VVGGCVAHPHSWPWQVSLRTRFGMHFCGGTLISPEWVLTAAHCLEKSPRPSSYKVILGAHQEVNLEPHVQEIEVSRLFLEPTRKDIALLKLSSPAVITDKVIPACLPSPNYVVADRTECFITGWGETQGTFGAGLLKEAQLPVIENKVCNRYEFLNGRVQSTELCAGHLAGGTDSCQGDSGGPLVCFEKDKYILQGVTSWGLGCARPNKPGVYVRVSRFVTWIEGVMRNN
Chain of Plasmin (P00747 97-580 limits assumed): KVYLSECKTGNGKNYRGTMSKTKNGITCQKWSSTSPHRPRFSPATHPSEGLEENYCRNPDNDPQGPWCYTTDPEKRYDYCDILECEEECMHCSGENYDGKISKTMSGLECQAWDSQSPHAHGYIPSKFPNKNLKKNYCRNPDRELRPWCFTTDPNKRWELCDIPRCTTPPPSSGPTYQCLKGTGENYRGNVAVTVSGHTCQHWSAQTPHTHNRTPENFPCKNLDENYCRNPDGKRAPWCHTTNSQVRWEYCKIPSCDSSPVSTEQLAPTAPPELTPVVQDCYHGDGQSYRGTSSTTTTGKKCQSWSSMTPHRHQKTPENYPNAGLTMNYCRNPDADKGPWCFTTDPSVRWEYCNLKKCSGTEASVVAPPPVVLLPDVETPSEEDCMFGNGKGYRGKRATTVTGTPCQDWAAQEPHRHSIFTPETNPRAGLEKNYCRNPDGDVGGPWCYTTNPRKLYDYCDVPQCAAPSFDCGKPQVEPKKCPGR
Chain of Streptokinase (Homo sapiens) (P00747 581-810 limits assumed): as the sequence (P00747 581-810 limits assumed) above
Chain of Protein Ca (P04070 212-461 limits assumed): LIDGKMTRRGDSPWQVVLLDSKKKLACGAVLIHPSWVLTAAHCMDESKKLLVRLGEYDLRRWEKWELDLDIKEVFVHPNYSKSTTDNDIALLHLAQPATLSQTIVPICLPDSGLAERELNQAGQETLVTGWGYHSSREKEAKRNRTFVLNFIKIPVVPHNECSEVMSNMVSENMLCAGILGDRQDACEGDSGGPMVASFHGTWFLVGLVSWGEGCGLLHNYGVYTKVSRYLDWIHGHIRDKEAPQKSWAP
Chain of Protein Ca (P04070 43-197 limits assumed): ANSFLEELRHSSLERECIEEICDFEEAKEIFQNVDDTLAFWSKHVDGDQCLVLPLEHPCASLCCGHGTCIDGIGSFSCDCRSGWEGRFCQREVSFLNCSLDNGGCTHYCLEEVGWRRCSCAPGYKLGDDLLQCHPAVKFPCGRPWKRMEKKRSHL
Chain of tPA (P00750 36-562): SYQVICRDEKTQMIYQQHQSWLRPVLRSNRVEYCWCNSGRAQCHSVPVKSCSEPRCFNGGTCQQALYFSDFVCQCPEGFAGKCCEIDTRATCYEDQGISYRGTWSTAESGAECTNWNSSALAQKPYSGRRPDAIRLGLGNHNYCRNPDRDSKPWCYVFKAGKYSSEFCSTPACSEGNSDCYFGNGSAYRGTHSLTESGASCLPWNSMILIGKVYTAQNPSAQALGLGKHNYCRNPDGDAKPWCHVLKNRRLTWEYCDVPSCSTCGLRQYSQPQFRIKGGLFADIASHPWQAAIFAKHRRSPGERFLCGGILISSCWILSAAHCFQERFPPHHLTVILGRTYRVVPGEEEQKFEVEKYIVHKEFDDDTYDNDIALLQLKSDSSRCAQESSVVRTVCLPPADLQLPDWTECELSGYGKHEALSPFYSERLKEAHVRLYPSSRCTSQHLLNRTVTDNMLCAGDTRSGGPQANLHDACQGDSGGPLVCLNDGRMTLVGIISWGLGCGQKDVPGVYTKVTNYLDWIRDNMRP

| SMILES | Ratio = Ki enzyme/Ki Factor Xa, Plasmin (Plasmin) | Ki (Plasmin) [µM] | Km of FXa toward S-2222 in the presence of compound (FXa [1]) | Vmax of FXa toward S-2222 in the presence of compound (FXa [1]) | type of inhibition of FXa (Lineweaver-Burk plots) (FXa [1]) | slope of inhibition activity plot (FXa [1]; compound at 2 µM) | slope of inhibition activity plot (FXa [1]; compound at 5 µM) | Ki (FXa [1]) [µM] | Ratio = Ki enzyme/Ki Factor Xa, Factor Xa (FXa [2]) | Ki (FXa [2]) [µM] | Ratio = Ki enzyme/Ki Factor Xa, Protein Ca (Protein Ca) | Ki (Protein Ca) [µM] | Ratio = Ki enzyme/Ki Factor Xa, Urokinase (Urokinase) | Ki (Urokinase) [µM] | Ratio = Ki enzyme/Ki Factor Xa, Streptokinase [3] | Ki [3] [µM] | Ratio = Ki enzyme/Ki Factor Xa, α-Thrombin (α-Thrombin) | Ki (α-Thrombin) [µM] | Ratio = Ki enzyme/Ki Factor Xa, tPA (tPA) | Ki (tPA) [µM] | other results |
| --- | --- | --- | --- | --- | --- | --- | --- | --- | --- | --- | --- | --- | --- | --- | --- | --- | --- | --- | --- | --- | --- |
| CC(=O)NCCc1ccc2c(c1)O[C@H](c1ccc(O)c(O)c1)[C@@H](NC(C)=O)O2 [Compound 4, (2 R,3 S)-2-(3′,4′-dihydroxyphenyl)-3-acetylamino-7-(N-acetyl-2″-aminoethyl)-1,4-benzodioxane] | >100 | > 500 | no effect | decrease | noncompetitive inhibition | 0.376 | 0.398 | 4.72 | 1 | 4.72 ± 0.31 | >100 | > 500 | >100 | > 500 | >100 | > 500 | >100 | > 500 | >100 | > 500 | Ratio = Ki enzyme/Ki Factor Xa, Trypsin (Trypsin): >100; Ki (Trypsin): > 500 µM |
| CC(=O)NCCc1ccc2c(c1)O[C@H](NC(C)=O)[C@@H](c1ccc(O)c(O)c1)O2 [Compound 3, (2 R,3 S)-2-(3′,4′-dihydroxyphenyl)-3-acetylamino-6-(N-acetyl-2″-aminoethyl)-1,4-benzodioxane] | >100 | > 500 | no effect | decrease | noncompetitive inhibition | 0.408 | 0.464 | 4.45 | 1 | 4.45 ± 0.37 | >100 | > 500 | >100 | > 500 | >100 | > 500 | >100 | > 500 | >100 | > 500 | bleeding time (C57BL/6 mice; mice treated with 10 µM): 12.1 ± 1.1 min; bleeding time (C57BL/6 mice; mice treated with 30 µM): 12.3 ± 1.3 min; Ratio = Ki enzyme/Ki Factor Xa, Trypsin (Trypsin): >100; Ki (Trypsin): > 500 µM |
| CC(=O)NCCc1ccc2c(c1)O[C@@H](NC(C)=O)[C@@H](c1ccc(O)c(O)c1)O2 [Compound 2, (2 R,3 R)-2-(3′,4′-dihydroxyphenyl)-3-acetylamino-6-(N-acetyl-2″-aminoethyl)-1,4-benzodioxane] | >100 | > 500 | no effect | decrease | noncompetitive inhibition | 0.442 | 0.465 | 4.13 | 1 | 4.13 ± 0.43 | >100 | > 500 | >100 | > 500 | >100 | > 500 | >100 | > 500 | >100 | > 500 | bleeding time (C57BL/6 mice; mice treated with 10 µM): 12.5 ± 1.2 min; bleeding time (C57BL/6 mice; mice treated with 30 µM): 13.5 ± 1.1 min; Ratio = Ki enzyme/Ki Factor Xa, Trypsin (Trypsin): >100; Ki (Trypsin): > 500 µM |
